This is an account of results in article PMC6348381, “Discovery of an MLLT1/3 YEATS Domain Chemical Probe” (Angewandte Chemie (International Ed. in English), 2018).

One test addresses T1, MLLT1 YD (Homo sapiens, UniProt Q03111).
T1 construct: made in house; host or cells: E. coli Rosetta
T1 sequence (Q03111 1-138 limits assumed): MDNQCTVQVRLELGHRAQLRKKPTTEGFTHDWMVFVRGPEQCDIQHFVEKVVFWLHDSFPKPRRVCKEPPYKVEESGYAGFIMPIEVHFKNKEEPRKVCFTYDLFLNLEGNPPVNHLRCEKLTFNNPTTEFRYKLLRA
Briefly: AlphaScreen (AS) assay, MLLT1 YEATS domain. The format is binding. As for the experimental part:
II.IV Protein Expression and Purification
Human bromodomains were cloned, expressed and purified as previously described. The cloning, expression and purification of human YEATS domains are described as follows; Sequences for the wild type YEATS domains of MLLT1, MLLT3, GAS41 and YEATS2 were cloned into expression vectors (Table S1). E. coli Rosetta cells were grown in TB medium at 37°C. Overexpression was induced after five hours by addition of IPTG to a final concentration of 0.4 mM and cells were incubated at 17°C overnight. Cells were harvested by centrifugation and the cell pellet was resuspended in cold binding buffer (50 mM Tris at pH 7.5, 500 mM NaCl, 20 mM imidazole, 2 mM DTT) on a magnetic stirring plate at 4°C. The suspension was lysed using an Avestin EmulsiFlex-C5 homogeniser (1 pass without pressure, four passes with pressure between 1000-1500 bar). The lysate was clarified via centrifugation at 16,000 rpm at 4°C for 1 hour (JLA-16 rotor in Beckmann Coulter Avanti J- […]
The supernatant was loaded onto a standard NiNTA column (HisTrap
FF, 5 ml, GE Healthcare Lifesciences) on an ÄKTAxpress system (GE). After washing with binding buffer, the target protein was eluted at 300 mM imidazole. The eluted peak fractions were pooled and concentrated to 5 ml (Amicon concentrators, 10 kDa molecular weight cut off (MWCO)) and then separated via size exclusion chromatography (buffered with 20 mM Tris at pH 7.5, 500 mM NaCl, 2 mM DTT) using a GE Superdex 75 column on an […]
(NanoDrop ND-1000 Spectrophotometer) and protein identity was verified via SDS-PAGE and LC/MS. Pooled fractions were then again concentrated to at least 2 mg/ml and stored at […]
(§1) (1 picture or pasted object on this page, not shown here)
A general note: Alpha assays give light when donor and acceptor beads are brought close together.

For another test, the target named is T2, MLLT3 (Homo sapiens, UniProt P42568).
T2 construct: in full length MLLT3 N-terminal NanoLuc, Histone; host or cells: HEK293
T2 sequence (P42568 1-568): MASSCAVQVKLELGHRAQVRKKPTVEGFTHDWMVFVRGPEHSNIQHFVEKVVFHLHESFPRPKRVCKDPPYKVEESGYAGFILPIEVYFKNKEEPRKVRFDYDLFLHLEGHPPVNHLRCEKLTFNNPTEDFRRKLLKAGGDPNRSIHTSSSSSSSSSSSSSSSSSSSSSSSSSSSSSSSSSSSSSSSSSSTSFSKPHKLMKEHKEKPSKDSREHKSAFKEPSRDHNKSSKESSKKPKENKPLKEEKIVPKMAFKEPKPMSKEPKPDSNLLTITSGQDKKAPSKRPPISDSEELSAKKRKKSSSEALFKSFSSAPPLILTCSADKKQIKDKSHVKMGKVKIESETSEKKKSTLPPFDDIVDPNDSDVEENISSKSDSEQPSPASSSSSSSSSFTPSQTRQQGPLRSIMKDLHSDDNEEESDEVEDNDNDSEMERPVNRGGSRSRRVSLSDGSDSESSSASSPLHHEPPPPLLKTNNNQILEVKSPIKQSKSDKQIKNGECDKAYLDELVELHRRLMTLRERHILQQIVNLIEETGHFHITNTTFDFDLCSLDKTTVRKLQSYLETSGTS
Nature of the test: NanoBRET assay, full-length MLLT3-NanoLuc / histone H3.3-HaloTag in HEK293 cells. In kind it is cell-based. Particulars: 24 h, in the presence of 2.5 μM SAHA. On the procedure:
II.V NanoLuciferase Bioluminescent Resonance Energy Transfer (NanoBRET) Assay[2]
HEK293 cells ([…]) were plated in each well of a 6-well plate after 6 h cells were co-transfected with Histone H3.3-HaloTag (NM_002107) and a NanoLuciferase fusion of MLLT1 or MLLT3 (WT sequences from Promega HaloTag® human ORF in pFN21A) at a 1:500 and 1:10 (NanoLuc® to HaloTag®) ratio respectively with FuGENE HD transfection regent. Sixteen hours post-transfection, cells were collected and exchanged into media containing phenol red-free DMEM and 4% FBS in the absence (control sample) or the presence (experimental sample) of 100 nM NanoBRET 618 fluorescent ligand (Promega).
Cell density was adjusted to 2 x 10^5 cells/mL and then seeded 100 µL/well in a white 96-well plate (Corning Costar #3917). Compounds were then added directly to media (in the presence of SAHA 2.5 µM) at final concentrations 0.01-30 μM or an equivalent amount of DMSO as a vehicle control, and the plates were incubated for 24 h at 37 °C in the presence […]
NanoBRET Nano-Glo substrate (Promega) was added to both control and experimental samples at a final concentration of 10 µM. Readings were performed within 5 minutes using a ClarioSTAR (BMG labtech) equipped with LP 480 and 610 nm filters. A corrected BRET ratio was calculated and is defined as the ratio of the emission at 610 nm/[…] for experimental samples minus the emission at 6 10 nm/640 nm for control samples (not incubated with NanoBRET fluorescent ligand). BRET ratios are expressed as milliBRET units (mBU), where 1 mBU corresponds to the corrected BRET ratio multiplied by 1000.
3.3 C-terminal HaloTag in HEK293 cells. Treatment with SAHA (2.5 µM) alone increases MLLT3- […]
dependent manner. Mean±SD of BRET ratio (mBU), n=4 technical replicates.
(also on this page, place not known: 5) -well H3.3 -HaloTag pFN21A ) ( NanoLuc® H aloTag®) post -transfection, red -free Nano -Glo 10 5 6 10 6 10 l igand). cells . […]
(In general: Bioluminescence resonance energy transfer reports proximity on the nanometre scale.)

Another test concerns MV4;11 AML cells. Briefly: qPCR gene expression in MV4;11 cells. In kind it is cell-based, human. Particulars: 1 μM, 72 h. On the procedure:
II.XII Analysis of gene expression by quantitative polymerase chain reaction (qPCR) […]
MV4;11 cells were cultured at 37 °C in a humidified 5% CO2 atmosphere in RPMI medium containing 10% FBS and 1% L-glutamine. Cells were seeded at a density of 2 x 10^6 cells/well in 6 well plates pre-coated in polyhema, to enable suspension culture. Cells were […]
and washing with PBS, RNA was extracted from cells using RNeasy Mini Kit (Qiagen), following the manufacturer’s protocol. Total RNA was quantified by Nanodrop and 500 ng of RNA was converted to cDNA using GoScript Reverse Transcription System (Promega). The final cDNA products were quantified by QPCR using FAM dye-labelled Taqman primers and probe sets (see table below). Data was analysed using the comparative cycle threshold (CT) method where CT values were normalised by subtracting that from an endogenous housekeeping gene (VIC dye-labelled ACTB). The gene expression levels from compound-treated cells are presented as relative to those of DMSO treated control cells. Statistical analyses were carried out using two-way ANOVA (GraphPad Prism 7).
ACTB (Beta Actin) Endogenous Control 4326315E
Supplementary Table 4. Taqman Gene Expression Assays (Life Technologies). Taqman MGB probes have 5’ FAM reporter dye (or VIC) and 3’ non-fluorescent quencher. […]

The target in another test is T3, MLLT3 YD (Homo sapiens, UniProt P42568).
T3 construct: made in house; host or cells: E. coli Rosetta
Briefly: Isothermal titration calorimetry (ITC), MLLT3 YD. In kind it is binding. On the procedure:
Supplementary Table 1. AlphaScreen selectivity screen of compound 92 over other acyllysine […]
II.III Isothermal Titration Calorimetry (ITC)
Experiments were carried out on a Nano -ITC Standard Volume Instrument (TA Instruments).
All experiments were carried out at 25 °C in 20 mM HEPES pH 7.5, 150 mM NaCl, 0.5 mM TCEP and 5% glycerol. Protein soluti ons were buffer exchanged by gel filtration. The titrations were conducted using an initial injection of 2 μL followed by 32 injections of 8 μL.
Background dilution heat was subtracted from each experiment. Thermodynamic parameters […]
changes in free energy, enthalpy and entropy respectively. Independent single site binding models were employed in data analysis.
(also on this page, place not known: ac yllysine Nano-ITC -T 1/ KB. ΔH Molar&ratio&[injectant/cell] Time&[s] Corrected&Heat&Rate&[ucal/s] Experiment&1 K Experiment&2 K K)
as §1

The target of test [1] is T4, endogenous MLLT1 in MV4;11 cells (Homo sapiens, UniProt Q03111).
T4 construct: with endogenous MLLT1 in MV4;11 cells; endogenous in cells; host or cells: MV4;11
T4 sequence (Q03111 whole entry): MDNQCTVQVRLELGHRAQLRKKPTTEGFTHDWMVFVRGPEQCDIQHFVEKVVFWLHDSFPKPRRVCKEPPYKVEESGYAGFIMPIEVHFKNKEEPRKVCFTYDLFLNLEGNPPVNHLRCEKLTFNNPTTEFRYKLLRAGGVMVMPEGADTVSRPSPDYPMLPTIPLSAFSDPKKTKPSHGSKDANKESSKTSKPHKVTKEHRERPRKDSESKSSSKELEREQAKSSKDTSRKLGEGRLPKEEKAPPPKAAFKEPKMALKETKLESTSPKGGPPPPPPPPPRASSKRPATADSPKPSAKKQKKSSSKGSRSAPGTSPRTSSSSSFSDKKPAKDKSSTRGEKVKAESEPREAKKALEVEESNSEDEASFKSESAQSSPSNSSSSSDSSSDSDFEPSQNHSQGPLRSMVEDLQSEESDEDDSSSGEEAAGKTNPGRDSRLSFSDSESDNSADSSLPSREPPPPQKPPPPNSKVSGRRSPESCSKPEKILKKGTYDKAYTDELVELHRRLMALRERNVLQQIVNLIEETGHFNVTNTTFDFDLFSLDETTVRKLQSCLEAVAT
Nature of the test: Cellular thermal shift assay (CETSA), MV4;11 cells. Particulars: up to 10 μM. In kind it is cell-based. As for the experimental part:
Supplementary Table 2. Thermal stabilisation of compound 1, 92 and Bromosporine with recombinant human bromodomain proteins. *50 µM compound concentration. †10 µM compound […]
II.VIII Cellular Thermal Shift Assay[6]
HEK293 and MV4;11 cells were cultured at 37 °C in a humidified 5% CO2 atmosphere in DMEM Medium containing 10% FBS, respectively. Cells were grown until approximately […]
DMSO final concentrati on) for 30 minutes. Cells were then collected, washed with PBS, transferred in PCR tubes, and pelleted by centrifugation (300 g, 3 min, RT.) The PBS was removed, and the cell pellets heated at the indicated temperature for 3 minutes in a PCR machine (UNO96 , VMR) and then placed on ice. Lysis buffer (50 mM Tris pH 7.5, 0.8% v/v NP-40, 5% v/v glycerol, 1.5 mM MgCl2, 100 mM NaCl, 25 mM NaF, 1mM Na3VO4, 1mM PMSF, 1mM DTT, 10 μg/mL TLCK, 1 μg/mL Leupeptin, 1 μg/mL Aprotinin, 1 μg/mL soy bean trypsin, ≥250 units/ mL Benzonase) was added and the cells lysed by 3 freeze -thaw cycles in liquid nitrogen. Aggregated proteins were removed by centrifugation (17000 g, 20 min, 4 °C) and the protein concentration of the retained soluble fraction determined. 4× sample loading buffer (Bio-Rad) containing 20% v/v DTT was added and samples were heated for 6 min at 90 °C prior to separation by SDS -PAGE. […]

Take `CCC1CCCN1Cc1nc2cc(NC(=O)c3ccc4c(cnn4C)c3)ccc2[nH]1` (stereo not shown) [Compound 87]: on MLLT1 YD, the IC50 (usually the concentration at which inhibition is half-maximal) came out at 0.3 ± 0.06 µM.
Take `CC1CCCN1Cc1nc2cc(NC(=O)c3ccc(Cl)cc3)ccc2[nH]1` (stereo not shown) [Compound 85]: at MLLT1 YD, the IC50 came to 0.33 ± 0.11 µM.
The same measure, in the same setting: under `CC1CCN(Cc2nc3cc(NC(=O)c4ccc5c(cnn5C)c4)ccc3[nH]2)C1` (stereo not shown) [Compound 89] stands 0.6 ± 0.46 µM; under `C[C@@H]1C[C@H](C)CN(Cc2nc3cc(NC(=O)c4ccc5c(cnn5C)c4)ccc3[nH]2)C1` [Compound 82], 5.7 ± 2.4 µM.
On MLLT1 YD, `COc1ccccc1C(=O)Nc1ccc2[nH]c(CN3CCCCC3)nc2c1` [Compound 69] showed an IC50 greater than 20 µM.
On the same count and under the same terms, under `COCC1CCCN1Cc1nc2cc(NC(=O)c3ccc4c(cnn4C)c3)ccc2[nH]1` (stereo not shown) [Compound 88] stands 0.97 ± 0.47 µM.
Same read-out and setting: next, `O=C(Nc1ccc2[nH]c(CN3CCCCC3)nc2c1)c1ccc(-n2ccnc2)cc1` [Compound 77]: 1 ± 0.59 µM.
`C[C@@H]1CCCN1Cc1nc2cc(NC(=O)c3ccc4c(cnn4C)c3)ccc2[nH]1` [Compound 91]: the IC50 at MLLT3 was 5.8 ± 0.07 µM. Also, the “gene expression of MYC, MPO, DDN, CTSG, CD86 (qPCR)” value with MV4;11 AML cells is “diminished cell activity”. Moreover, on MLLT3 YD, the Kd (as a rule, the concentration at which binding is half-saturated) is 0.54 µM. Moreover, in test [1], the “thermal stabilisation of MLLT1 (CETSA)” value was “no thermal stabilisation”.
Take `O=C(Nc1ccc2[nH]c(CN3CCCCC3)nc2c1)c1ccccc1Cl` [Compound 68]: at MLLT1 YD, the IC50 was greater than 20 µM.
With `COc1ccc(C(=O)Nc2ccc3[nH]c(CN4CCCCC4)nc3c2)cc1` [Compound 74], the IC50 on MLLT1 YD was 6.4 ± 0.65 µM.
Same read-out and setting: next, `O=C(Nc1ccc2[nH]c(CCN3CCCCC3)nc2c1)c1ccc(Cl)cc1` [Compound 84]: greater than 20 µM; `C[C@@H]1CCC[C@H](C)N1Cc1nc2cc(NC(=O)c3ccc(Cl)cc3)ccc2[nH]1` [Compound 80]: greater than 20 µM; `O=C(Nc1ccc2[nH]c(CN3CCCCC3)nc2c1)c1cccc(OC(F)(F)F)c1` [Compound 70]: greater than 20 µM.
As for `Cn1ncc2cc(C(=O)Nc3ccc4[nH]c(CN5CCCCC5)nc4c3)ccc21` [Compound 79], the IC50 against MLLT1 YD is 1.6 ± 0.54 µM.
In the case of `CC1CCN(Cc2nc3cc(NC(=O)c4ccc5c(cnn5C)c4)ccc3[nH]2)C1` (stereo not shown) [Compound 90], at MLLT1 YD, the midpoint of inhibition, the IC50, lay at 0.73 ± 0.59 µM.
Still for that read-out and setting: under `CC(c1nc2cc(NC(=O)c3ccc(Cl)cc3)ccc2[nH]1)N1CCCCC1` (stereo not shown) [Compound 81] stands greater than 20 µM; under `CC1CCN(Cc2nc3cc(NC(=O)c4ccccc4)ccc3[nH]2)CC1` [Compound 83], greater than 20 µM.
In the case of `Cn1ncc2cc(C(=O)Nc3ccc4[nH]c(CN5C[C@H]6C[C@H]6C5)nc4c3)ccc21` [Compound 86], at MLLT1 YD, the midpoint of inhibition, the IC50, lay at 1.4 ± 0.86 µM.
`Cc1ccc(C(=O)Nc2ccc3[nH]c(CN4CCCCC4)nc3c2)cc1C` [Compound 72]: the IC50 against MLLT1 YD was found to be 5.5 ± 0.06 µM.
